{"source": "patent US9452037B2", "about": "“Delivery of oral care products” (INTERNATIONAL SCIENTIFIC PTY LTD, priority 2010, dated 2016)", "experiment": "Tooth whitening of extracted human teeth with carbamide peroxide gel, delivered passively or with displaced dipolar magnetic elements in motion", "conditions": "for relative (%) change in tooth colour (reduction in yellow content), mean: 700 mg of 36% gel, 10 teeth; for relative (%) change in tooth colour (reduction in yellow content), mean / average shift from the yellow spectrum to the white spectrum, mean / change in colour luminosity, mean: 3 minutes daily for 5 days; for average shift from the yellow spectrum to the white spectrum, mean / change in colour luminosity, mean: 36% gel", "experimental": "The ability of the devices of the present invention to deliver active agents (carbamide peroxide) through the dentine of teeth was tested.\n20 human teeth were donated by a registered oral surgeon and stored in alcohol for 48 hours prior to ultrasonic cleaning and drying using warm air and absorbent paper. Teeth were divided into two groups. 10 teeth were allocated to the active group (exposed to pairs of displaced dipolar magnetic elements in motion) and 10 allocated to the passive delivery group (exposed to materials with no magnetic field but also in motion). Size, colour and degree of degeneration were matched between the groups.\nIndividual teeth were photographed using controlled light conditions before and after application of Carbamide Peroxide Gel using a 10 megapixel camera (Pentax Optio) digital camera. Commercial digital imaging software (Photoshop CS2 version 9), was used in CMYK mode to degenerate histograms and images of matched regions of enamel in tooth before and after application.\nEach tooth was treated using 700 mg of 36% Carbaminde Peroxide based Tooth Whitening gel. This measure of gel was place on the surface of 10 sized matched pairs of displaced dipolar magnetic elements comprising flexible ETP008 magnetic material formed of a parallel linear array of displaced dipolar magnetic elements with common pole pairs of 450 gauss peak flux with a centre to centre spatial separation of 4 mm oscillated by electrical motor at a frequency of 3 Hz [this is also known as the field-in-motion or FIM group, or eM patch group]. The control group was placed on the surface of polystyrene cards and also oscillated at 3 Hz using the same motorized oscillation means. Teeth were placed horizontally into the carbamide peroxide gel mounds ensuring complete contact and coverage. After 3 minutes of exposure, teeth were removed, cleaned and preserved for the following day. This was repeated for 5 consecutive days.\nAnalysis was conducted using three measures of colour change. Relative change in percentage of yellow in the image, changes in the spectrum shift from yellow to white and in the luminosity level.\nRelative change in the percentage of Yellow in the matched regions of enamel was taken as reflecting the change in the colour of the underlying dentin materials. Differences in the relative change in the Yellow spectrum were interpreted as reflecting the different penetrations rates of peroxide delivery through the enamel under active and passive conditions.\nChanges in the spectrum medium point reflects change in colour from the yellow towards the white end of the spectrum. Again, differences in spectrum medium point location were interpreted as reflecting the different penetrations rates of peroxide delivery through the enamel under active and passive conditions.\nLuminosity was recorded as a measure of brightness with changes reflecting different penetrations rates of peroxide delivery through the enamel under active and passive conditions.", "key": {"[1]": {"conditions": "Magnetic FIM (eM-patch): ETP008 array oscillated at 3 Hz"}, "[2]": {"conditions": "Passive: no magnetic field, oscillated at 3 Hz"}}}
{"compound": "NC(N)=O.OO", "note": "[carbamide peroxide]", "values": [{"measurement": "relative (%) change in tooth colour (reduction in yellow content), mean", "setting": "[1]", "result": 43.98, "unit": "%"}, {"measurement": "average shift from the yellow spectrum to the white spectrum, mean", "setting": "[1]", "result": 36.20}, {"measurement": "change in colour luminosity, mean", "setting": "[1]", "result": 29.54}, {"measurement": "average shift from the yellow spectrum to the white spectrum, mean", "setting": "[2]", "result": 27.70}, {"measurement": "change in colour luminosity, mean", "setting": "[2]", "result": 21.09}, {"measurement": "relative (%) change in tooth colour (reduction in yellow content), mean", "setting": "Passive: polystyrene card oscillated at 3 Hz, no magnetic field", "result": 29.58, "unit": "%"}, {"measurement": "greater increase in luminosity than the passive group", "setting": "magnetic elements in motion vs passive, p=0.023", "result": 40, "unit": "%"}, {"measurement": "greater reduction in yellow content compared to the passive group", "setting": "magnetic elements in motion vs passive, p=0.025", "result": 49, "unit": "%"}, {"measurement": "average shift from yellow to white spectrum greater than the passive diffusion group", "setting": "magnetic elements in motion vs passive, p=0.044", "result": 31, "unit": "%"}]}
